Assays:
Format in all cases: cell-based
[1] = system: COS-1 cells; experiment: Cell death seen in COS-1 cells during the BiFC screen; settings: 10 μM
Experimental: BiFC Drug Screens: COS-1 cells were grown in DMEM and seeded to 50,000 cells/well of a 12-well plate and allowed to attach for 24 hours. Cells were then transfected with three plasmids pMyc-VN155-PRMT5, pHA-VC-MEP50, and pFLAG-NLS-CFP to visualize the interaction between PRMT5:MEP50. For BiFC screens, the COS-1 cells were treated with compound or DMSO to final concentration (10 μM for compound 1-12 screen and 0.25, 0.50, 0.75, 1.0, and 5.0 μM or subsequent compound 8 screen) six hours after transfection and returned to the incubator. Following 24 hours after transfection, cells were imaged on a Nikon TE-2000U microscope and images for CFP, YFP, and phase contrast were acquired using MetaMorph software (Nikon) with 20× objective. Images were analyzed with ImageJ^70. Regions of Interest (ROI) were selected around each cell, and mean intensity was measured for each selection. A YFP:CFP ratio was calculated for DMSO as well as control treatment cells. The YFP:CFP ratio was then normalized to that of DMSO to generate the BiFC Efficiency score. The lower score indicated less PRMT5:MEP50 PPI detected in a given cell or treatment group. Inhibition (% Inhibition) is calculated as a percent of 100%−the BiFC Efficiency. […]

[2] = system: LNCaP cells; experiment: MTT assay / growth of LNCaP cells; settings: for IC50: 72 hours treatment
Experimental: LNCaP cells were seeded at 7,000 cells per well of a 96-well cell culture plate and incubated 24 hours to allow for attachment. Test compounds were diluted in RPMI-1640/25% DMSO pre-dilutions and added to respective wells of the assay plate to maintain constant concentration of 0.25% DMSO. After addition of compounds, cells were returned to incubator (37° C., 5% CO2) for 72 hours. Following incubation, assay plates were removed from incubator and media aspirated. 30 μL complete RPMI supplemented with 0.5 mg/mL MTT (Sigma) was added to the plate, and plate returned to incubator for 4 hours. Plates were removed, and 88 μL DMSO was added. Plates were shaken at 700 rpm for 1 minute and read on spectrophotometer at 570 nm.

[3] = target: T1, PRMT5:MEP50 protein-protein interaction (Homo sapiens, UniProt O14744); experiment: BiFC drug screen of PRMT5:MEP50 interaction in COS-1 cells; parameters: expressed in transfected cells; host or cells: COS-1; settings: for rank in BiFC screen (inhibition of PRMT5:MEP50): 18 hours
Experimental: BiFC Drug Screens: COS-1 cells were grown in DMEM and seeded to 50,000 cells/well of a 12-well plate and allowed to attach for 24 hours. Cells were then transfected with three plasmids pMyc-VN155-PRMT5, pHA-VC-MEP50, and pFLAG-NLS-CFP to visualize the interaction between PRMT5:MEP50. For BiFC screens, the COS-1 cells were treated with compound or DMSO to final concentration (10 μM for compound 1-12 screen and 0.25, 0.50, 0.75, 1.0, and 5.0 μM or subsequent compound 8 screen) six hours after transfection and returned to the incubator. Following 24 hours after transfection, cells were imaged on a Nikon TE-2000U microscope and images for CFP, YFP, and phase contrast were acquired using MetaMorph software (Nikon) with 20× objective. Images were analyzed with ImageJ^70. Regions of Interest (ROI) were selected around each cell, and mean intensity was measured for each selection. A YFP:CFP ratio was calculated for DMSO as well as control treatment cells. The YFP:CFP ratio was then normalized to that of DMSO to generate the BiFC Efficiency score. The lower score indicated less PRMT5:MEP50 PPI detected in a given cell or treatment group. Inhibition (% Inhibition) is calculated as a percent of 100%−the BiFC Efficiency. Referring to FIGS. 6A-6C, for the BiFC screen of compounds 13-22 (including 8a and 8b), COS-1 cells were transfected for 24 hours, treated with 0.5 μM of compounds for 18 hours, and then imaged as described above. Referring to FIG. 6C, for the BiFC screen of compounds 23-26 (including 8a and 8b), COS-1 cells were transfected for 24 hours, treated with […] of compounds for 18 hours, and then imaged as described above. BiFC drug screens were performed in single biological replicate as a high throughput screen to produce ranked order of compounds, although multiple biological replicate data was used whenever available.

[4] = system: A549 cells; experiment: IC50 in A549 NSCLC cell line; settings: 72 hours treatment
[5] = system: RB1; experiment: RT-qPCR expression of RB1 in LNCaP cells; settings: 500 nM, 72 hours
Experimental: (§1) LNCaP cells were seeded to either 6 cm or 10 cm dishes at 800,000 or 2,200,000 cells/dish respectively. Cells were allowed to attach for 24 hours and then subsequently treated with either compound 17 (500 nM) or DMSO for 72 hours. Cells were then harvested with Trizol reagent (Ambion) and RNA integrity was verified via agarose gel electrophoresis. […] was utilized following manufacturer instructions and as described previously, as described in Deng et al., Oncogene 2017, 36 (9), 1223-123; Hsu et al., Mol. Cell. Endocrinol. 2013, 372 (1-2), 12-221; and Zhang et al., Biochim. Biophys. Acta 2014, 1839 (11), 1330-1340, each of which is incorporated herein by reference in its entirety for its teachings regarding same. RT-qPCR was performed with FastStart Universal SYBR Green Master Mix (Thermo Fisher Scientific) and detected on a QuantStudio 6 Flex with QuantStudio Real-Time PCR control software (Thermo Fisher Scientific). QuantStudio Design and Analysis software (Thermo Fisher Scientific) was used for data analysis. Technical triplicates were run for all samples, samples without detectable amplification were deemed undetected. Primer sets were validated via melt curve and agarose gel analysis of RT-qPCR product. AR primers were used as described in Deng et al., Oncogene 2017, 36 (9), 1223-123. […]

[6] = system: androgen receptor (AR) gene; experiment: RT-qPCR expression of AR in LNCaP cells; settings: 500 nM, 72 hours
Experimental: as §1

[7] = system: H4R3me2s; experiment: Global histone H4R3me2s western blot in LNCaP cells; settings: 72 hours
Experimental: For global histone H4R3 and H4R3me2s western blots, cell lysate was prepared in RIPA buffer (10 mM Tris-HCl pH 8.0, 5 mM EDTA, 1% Triton X-100, 0.1% sodium deoxycholate, 0.1% sodium dodecyl sulfate, 150 mM sodium chloride, and 5 μg/mL each chymostatin, leupeptin, pepstatin A, and antipan in DMSO, with 1 mM PMSF and total soluble protein was quantified using Bradford assay. 100 μL lysate was combined with 100 μL 2×SDS buffer, and 20 μg total lysate was loaded into the wells of a 15% acrylamide/bisacrylamide gel. The gel was run for 60 min at 125 V and transferred onto nitrocellulose membrane for 45 min at 100 V. Anti-H4R3 rabbit pAb (Abcam, ab10158) or anti-H4R3me2s rabbit pAb (Abcam, ab5823) was diluted 1:1000 in PBST and incubated overnight at 4° C. Secondary IRDyeR 800CW Donkey anti-Rabbit IgG Secondary Antibody (Li-Cor, 926-32213) was diluted 1:20,000 in PBST and incubated with the membrane, which was then imaged via LiCor Odyssey CLx imager and analyzed with ImageStudioLite software (Li-Cor). Integrated intensity of H4R3me2s band was normalized to H4R3 to determine relative abundance of H4R3me2s across DMSO and Cpd 17-treated samples.

[8] = target: T1, PRMT5:MEP50 protein-protein interaction; experiment: Co-immunoprecipitation western blot in LNCaP cells; settings: 500 nM, 24 hrs, three biological replicates
Experimental: LNCaP cells were treated with either DMSO or compound 17 (500 nM, 24 hrs) and harvested for Co-IP and WB in lysis buffer composed of 50 mM Tris-HCl, pH 7.4, 100 mM NaCl, 10 mM EDTA, 0.1% Triton X-100, 1 mM DTT, 1 mM PMSF, and 5 μg each of chymostatin, leupeptin, pepstatin A, and […]. Cells were lysed over 1 hour rotating in 4° C. and supernatant cleared. Total lysate (1 mg/mL) was used for Co-IP with 4 μg rabbit anti-PRMT5 pAb (Millipore Sigma 07-405), rabbit anti-MEP50 pAb (Cell Signaling Technologies S2823S) or normal rabbit IgG (Millipore Sigma N01-100 UG) overnight. Antibody-bound proteins were precipitated with Pierce Protein A agarose beads (Thermo Scientific 20333). Antibodies and immunoprecipitated proteins were prepared for western blot by adding 50 μL 2×SDS buffer, boiling at 95° C. for 5 min, and storing at -80° C. or proceeding to western blot. Co-IP product, input sample, or ladder were loaded into a 10% acrylamide/bisacrylamide gel (20 μL Co-IP, 20 μL input (0.4% total), 5 μL ladder per lane). […] Band Intensity was determined with ImageLab software and ImageJ.

[9] = system: Involucrine (IVL) gene; experiment: RT-qPCR expression of IVL in LNCaP cells; settings: 500 nM, 72 hours
Experimental: as §1

[10] = system: PTEN; experiment: RT-qPCR expression of PTEN in LNCaP cells; settings: 500 nM, 72 hours
Experimental: as §1

[11] = system: TP53; experiment: RT-qPCR expression of TP53 in LNCaP cells; settings: 500 nM, 72 hours
Experimental: as §1

T1 sequence (O14744 whole entry): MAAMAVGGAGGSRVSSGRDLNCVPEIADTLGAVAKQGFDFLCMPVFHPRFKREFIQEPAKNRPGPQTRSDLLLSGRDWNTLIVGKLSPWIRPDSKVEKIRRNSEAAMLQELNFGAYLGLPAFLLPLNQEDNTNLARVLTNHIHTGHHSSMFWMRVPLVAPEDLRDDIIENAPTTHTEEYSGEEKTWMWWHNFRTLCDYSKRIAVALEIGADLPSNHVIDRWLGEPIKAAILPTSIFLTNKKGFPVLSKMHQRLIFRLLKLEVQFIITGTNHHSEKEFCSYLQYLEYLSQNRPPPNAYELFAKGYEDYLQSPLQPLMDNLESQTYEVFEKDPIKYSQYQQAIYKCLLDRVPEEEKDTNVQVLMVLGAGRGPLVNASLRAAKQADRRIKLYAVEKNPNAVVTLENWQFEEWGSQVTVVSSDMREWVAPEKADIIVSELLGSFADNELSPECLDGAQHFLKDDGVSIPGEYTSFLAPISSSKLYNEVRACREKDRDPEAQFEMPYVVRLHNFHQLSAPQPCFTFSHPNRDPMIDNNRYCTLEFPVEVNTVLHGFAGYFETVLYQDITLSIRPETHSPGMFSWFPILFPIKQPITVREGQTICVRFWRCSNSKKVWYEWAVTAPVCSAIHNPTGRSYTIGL

rank in BiFC screen (inhibition of PRMT5:MEP50) ([3]; 500 nM)	IC50 [4] [nM]	IC50 ([4]; Homo sapiens, A549, 72 h) [nM]	IC50 [2] [nM]	rank in BiFC screen (inhibition of PRMT5:MEP50) ([3]; 250 nM)	decrease in amount of MEP50 co-immunoprecipitated with PRMT5 bait [8] [%]	SMILES	cell death on treatment in the BiFC assay [1]	IC50 ([2]; Homo sapiens, LNCaP, 72 h) [nM]	inhibition at 0.25 µM ([3]; 0.25 μM, read-out: inhibition of the BiFC efficiency) [%]	dose-response of BiFC efficiency inhibition ([3]; 0.25-5 μM)	suppression of growth and induction of cell death ([2]; LNCaP cells, 250 nM, 500 nM and 1000 nM, 72 hours)	expression of RB1 [5]	expression of PRMT5:pICln-regulated AR gene [6]	dose dependence of global H4R3me2s levels ([7]; LNCaP cells, 250, 500 and 1000 nM)	decrease of global H4R3me2s ([7]; LNCaP cells) [%]	expression of PRMT5:MEP50-regulated IVL gene [9]	expression of PTEN [10]	expression of TP53 [11]
top four inhibitors	–	–	–	–	–	Cc1noc(C)c1COc1cccc(C(=O)NNC(=O)c2ccc(C(F)(F)F)cn2)c1 [compound 15, N′-(3-((3,5-dimethylisoxazol-4-yl)methoxy)benzoyl)-5-(trifluoromethyl)picolinohydrazide]	–	–	–	–	–	–	–	–	–	–	–	–
top four inhibitors	447	< 450	430	most effective	65.4	CCc1noc(C)c1COc1cccc(C(=O)NNC(=O)c2ccc3ccccc3n2)c1 [compound 17, N′-(3-((3-ethyl-5-methylisoxazol-4-yl)methoxy)benzoyl)quinoline-2-carbohydrazide]	–	< 450	–	–	both suppression of growth and induction of cell death in a dose-dependent manner	upregulation	without significantly altering expression	decreased in a dose-dependent manner	65	significantly de-represses	upregulation	to some extent TP53, albeit statistically insignificant

SMILES	rank in BiFC screen (inhibition of PRMT5:MEP50) ([3]; 500 nM)	IC50 [4] [nM]	IC50 ([4]; Homo sapiens, A549, 72 h) [nM]	IC50 [2] [nM]	rank in BiFC screen (inhibition of PRMT5:MEP50) ([3]; 250 nM)	decrease in amount of MEP50 co-immunoprecipitated with PRMT5 bait [8] [%]	cell death on treatment in the BiFC assay [1]	IC50 ([2]; Homo sapiens, LNCaP, 72 h) [nM]	inhibition at 0.25 µM ([3]; 0.25 μM, read-out: inhibition of the BiFC efficiency) [%]	dose-response of BiFC efficiency inhibition ([3]; 0.25-5 μM)	suppression of growth and induction of cell death ([2]; LNCaP cells, 250 nM, 500 nM and 1000 nM, 72 hours)	expression of RB1 [5]	expression of PRMT5:pICln-regulated AR gene [6]	dose dependence of global H4R3me2s levels ([7]; LNCaP cells, 250, 500 and 1000 nM)	decrease of global H4R3me2s ([7]; LNCaP cells) [%]	expression of PRMT5:MEP50-regulated IVL gene [9]	expression of PTEN [10]	expression of TP53 [11]
Cc1noc(C)c1COc1cccc(C(=O)NNC(=O)c2ccc3ccccc3n2)c1 [compound 8, N′-(3-((3,5-dimethylisoxazol-4-yl)methoxy)benzoyl)quinoline-2-carbohydrazide]	top four inhibitors	–	–	–	–	–	significant cell death	1660	41	dose-dependent manner	–	–	–	–	–	–	–	–

— US20260049064A1, “PROTEIN:PROTEIN INTERACTION INHIBITORS” (Purdue Research Foundation, priority 2022, published 2026)
